Measured values as given in patent US7517987B2, “Caspase inhibitors and uses thereof” (Vertex Pharmaceutical Incorporated, priority 1999, dated 2009).

Key:
Caspase-3 = biological target: T1, Caspase-3 (Homo sapiens, UniProt P42574); assay: Caspase-3 enzyme assay, cleavage of fluorogenic substrate; assay type: biochemical; conditions: second order rate constant of enzyme inactivation; substrate Acetyl-Asp-Glu-val-Asp-amino-4-methylcoumarin
T1 sequence (P42574 29-175 limits assumed): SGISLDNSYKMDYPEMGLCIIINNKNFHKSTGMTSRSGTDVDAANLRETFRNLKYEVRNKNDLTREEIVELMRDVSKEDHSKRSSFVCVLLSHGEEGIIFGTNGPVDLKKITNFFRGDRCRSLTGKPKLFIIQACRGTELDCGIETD
T1 sequence (P42574 176-277 limits assumed): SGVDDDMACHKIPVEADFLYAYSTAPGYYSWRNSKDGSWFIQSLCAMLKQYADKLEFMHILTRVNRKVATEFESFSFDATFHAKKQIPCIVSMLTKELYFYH
From the text: (§1) The assays for caspase inhibition are based on the cleavage of a fluorogenic substrate by recombinant, purified human Caspases-1, -3, -7 or -8. The assays are run in essentially the same way as those reported by Garcia-Calvo et al. (J. Biol. Chem. 273 (1998), 32608-32613), using a substrate specific for each enzyme. The substrate for Caspase-1 is Acetyl-Tyr-Val-Ala-Asp-amino-4-methylcoumarin. The substrate for Caspases-3, -7 and -8 is Acetyl-Asp-Glu-val-Asp-amino-4-methylcoumarin.
(§2) The observed rate of enzyme inactivation at a particular inhibitor concentration, kobs, is computed by direct fits of the data to the equation derived by Thornberry et al. (Biochemistry 33 (1994), 3943-3939) using a nonlinear least-squares analysis computer program (PRISM 2.0; GraphPad software). To obtain the second order rate constant, kinact, kobs values are plotted against their respective inhibitor concentrations and kinact values are subsequently calculated by computerized linear regression.

Caspase-1 = biological target: T2, Caspase-1 (Homo sapiens, UniProt P29466); assay: Caspase-1 enzyme assay, cleavage of fluorogenic substrate; assay type: biochemical; conditions: second order rate constant of enzyme inactivation; substrate Acetyl-Tyr-Val-Ala-Asp-amino-4-methylcoumarin
T2 sequence (P29466 120-297 limits assumed): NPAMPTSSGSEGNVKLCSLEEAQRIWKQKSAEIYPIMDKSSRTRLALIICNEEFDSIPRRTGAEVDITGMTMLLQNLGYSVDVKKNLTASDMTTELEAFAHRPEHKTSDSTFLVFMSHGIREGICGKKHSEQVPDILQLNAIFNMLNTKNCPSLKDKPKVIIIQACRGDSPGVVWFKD
T2 sequence (P29466 317-404 limits assumed): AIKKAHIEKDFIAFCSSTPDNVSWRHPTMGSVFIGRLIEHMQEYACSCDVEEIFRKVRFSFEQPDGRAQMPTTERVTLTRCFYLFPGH
From the text: as §1, §2

Jurkat E6.1 cells = assay: Anti-Fas induced apoptosis assay; assay type: cell-based; conditions: Homo sapiens, anti-Fas antibody CH-11 10 ng/ml, 16-18 hrs, DNA fragmentation, OD405 nm
From the text: Cellular apoptosis may be induced by the binding of Fas ligand (FasL) to its receptor, CD95 (Fas). CD95 is one of a family of related receptors, known as death receptors, which can trigger apoptosis in cells via activation of the caspase enzyme cascade. The process is initiated by the binding of the adapter molecule FADD/MORT-1 to the cytoplasmic domain of the CD-95 receptor-ligand complex. Caspase-8 then binds FADD and becomes activated, initiating a cascade of events that involve the activation of downstream caspases and subsequent cellular apoptosis. Apoptosis can also be induced in cells expressing CD95 eg the Jurkat E6.1 T cell lymphoma cell line, using an antibody, rather than FasL, to crosslink the cell surface CD95. Anti-Fas-induced apoptosis is also triggered via the activation of caspase-8. This provides the basis of a cell based assay to screen compounds for inhibition of the caspase-8-mediated apoptotic pathway.
Jurkat E6.1 cells are cultured in complete medium consisting of RPMI-1640 (Sigma No)+10% foetal calf serum (Gibco BRL No. 10099-141)+2 mM L-glutamine (Sigma No. G-7513). The cells are harvested in log phase of growth. 100 ml Cells at 5-8×10^5 cells/ml are transferred to sterile 50 ml Falcon centrifuge tubes and centrifuged for 5 minutes at 100×g at room temperature. The supernatant is removed and the combined cell pellets resuspended in 25 ml of complete medium. The cells are counted and the density adjusted to 2×10^6cells/ml with complete medium.
The test compound is dissolved in dimethyl sulphoxide (DMSO)(Sigma No. D-2650) to give a 100 mM stock solution. This is diluted to 400 μM in complete medium, then serially diluted in a 96-well plate prior to addition to the cell assay plate.
100 μl of the cell suspension ([…]) is added to each well of a sterile 96-well round-bottomed cluster plate (Costar No. 3790). 501l of compound solution at the appropriate dilution and 50 μl of anti-Fas antibody, clone CH-11 (Kamiya No.MC-060) at a final concentration of 10 ng/ml, are added to the wells. Control wells are set up minus antibody and minus compound but with a serial dilution of DMSO as vehicle control. The plates are incubated for 16-18 hrs at 37° C. in 5% CO2 and 95% humidity.
Apoptosis of the cells is measured by the quantitation of DNA fragmentation using a ‘Cell Death Detection Assay’ from Boehringer-Mannheim, No. 1544 675. After incubation for 16-18 hrs the assay plates are centrifuged at 100×g at room temperature for 5 minutes. 150 μl of the supernatant are removed and replaced by 150 μl of fresh complete medium. The cells are then harvested and 200 μl of the lysis buffer supplied in the assay kit are added to each well. The cells are triturated to ensure complete lysis and incubated for 30 minutes at 4° C. The plates are then centrifuged at 1900×g for 10 minutes and the supernatants diluted 1:20 in the incubation buffer provided. 100 μl of this solution is then assayed exactly according to the manufacturer's instructions supplied with the kit. OD405 nm is measured 20 minutes after addition of the final substrate in a SPECTRAmax Plus plate reader (Molecular Devices). OD405 nm is plotted versus compound concentration and the IC50 values for the compounds are calculated using the curve fitting program SOFTmax Pro (Molecular Devices) using the four parameter fit option.

[1] = test system: IL-1β secretion from peripheral blood mononuclear cells (PBMC); assay: Inhibition of IL-1β secretion from mixed population of PBMC; assay type: cell-based; conditions: Homo sapiens, LPS 50 ng/ml, 16-18 h, mature IL-1β in supernatant
Experimental: Processing of pre-IL-1β by caspase-1 can be measured in cell culture using a variety of cell sources. Human PBMC obtained from healthy donors provides a mixed population of lymphocyte and mononuclear cells that produce a spectrum of interleukins and cytokines in response to many classes of physiological stimulators.
The test compound is dissolved in dimethyl sulfoxide (DMSO,Sigma #D-2650) to give a 100 mM stock solution. This is diluted in complete medium consisting of RPMI containing 10% heat inactivated FCS (Gibco BRL #10099-141), 2 mM L-Glutamine (Sigma, #G-7513), 100U penicillin and 100 μg/ml streptomycin (Sigma #P-7539). The final concentration range of test compound is from 100 μM down to 6 nM over eight dilution steps. The highest concentration of test compound is equivalent to 0.1% DMSO in the assay.
Human PBMC are isolated from Buffy Coats obtained from the blood bank using centrifugation on Ficoll-Paque leukocyte separation medium (Amersham, #17-1440-O2) and the cellular assay is performed in a sterile 96 well flat-bottomed plate (Nunc). Each well contains 100 μl of the cell suspension, 1×10^5 cells, 50 μl of compound dilutions and 50 μl of LPS (Sigma #L-3012) at 50 ng/ml final concentration. Controls consist of cells ± LPS stimulation and a serial dilution of DMSO diluted in the same way as compound. The plates are incubated for 16-18 h at 37° C. in 5% CO2 & 95% humidity atmosphere.
After 16-18 h the supernatants are harvested after centrifuging the plates at 100×g at 18° C. for 15 min and assayed for their IL-1β content. Measurement of mature IL-1β in the supernatant is performed using the Quantikine kits (R&D Systems) according to manufacturer's instructions. Mature IL-1β levels of about 600-1500 pg/ml are observed for PBMCs in positive control wells.
The inhibitory potency of the compounds can be represented by an IC50 value, which is the concentration of inhibitor at which 50% of the mature IL-1β is detected in the supernatant as compared to the positive controls.

Caspase-8 = Caspase-8 (Homo sapiens, UniProt Q14790); assay: Caspase-8 enzyme assay, cleavage of fluorogenic substrate; assay type: biochemical; conditions: second order rate constant of enzyme inactivation; substrate Acetyl-Asp-Glu-val-Asp-amino-4-methylcoumarin
From the text: as §1, §2

Caspase-7 = biological target: T3, Caspase-7 (Homo sapiens, UniProt P55210); assay: Caspase-7 enzyme assay, cleavage of fluorogenic substrate; assay type: biochemical; conditions: second order rate constant of enzyme inactivation; substrate Acetyl-Asp-Glu-val-Asp-amino-4-methylcoumarin
T3 sequence (P55210 24-198 limits assumed): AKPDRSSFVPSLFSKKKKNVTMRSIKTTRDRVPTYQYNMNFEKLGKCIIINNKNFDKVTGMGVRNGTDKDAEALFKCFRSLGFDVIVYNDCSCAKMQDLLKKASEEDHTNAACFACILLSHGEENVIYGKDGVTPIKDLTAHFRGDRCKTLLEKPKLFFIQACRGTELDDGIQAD
T3 sequence (P55210 207-303 limits assumed): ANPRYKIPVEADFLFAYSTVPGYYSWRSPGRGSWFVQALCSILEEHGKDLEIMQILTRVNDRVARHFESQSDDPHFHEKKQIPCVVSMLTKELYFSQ
From the text: as §1, §2

Sequence of Caspase-8 (Q14790 217-374 limits assumed): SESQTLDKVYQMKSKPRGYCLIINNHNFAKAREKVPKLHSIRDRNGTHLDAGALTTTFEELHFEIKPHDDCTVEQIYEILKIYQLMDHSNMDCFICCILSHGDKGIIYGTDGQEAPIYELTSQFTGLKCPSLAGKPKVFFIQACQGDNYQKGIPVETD
Sequence of Caspase-8 (Q14790 385-479 limits assumed): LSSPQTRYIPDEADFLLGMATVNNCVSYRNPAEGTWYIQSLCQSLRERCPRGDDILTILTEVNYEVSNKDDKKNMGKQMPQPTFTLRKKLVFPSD

Structure (SMILES)	Kinact (Caspase-3) [M⁻¹ s⁻¹]	Kinact (Caspase-1) [M⁻¹ s⁻¹]	IC50 (Jurkat E6.1 cells) [nM]	Caspase-8 Kinact (Caspase-8) [M⁻¹ s⁻¹]	Caspase-7 Kinact (Caspase-7) [M⁻¹ s⁻¹]	IC50 [1] [nM]
C[C@@H](C(=O)NC(CC(=O)O)C(=O)CF)n1c(=O)ccc2ccccc21 (stereo partly drawn) [Compound 1B-1, 5-Fluoro-4-oxo-3-[(S)-2-(2-oxo-2H-quinolin-1-yl)-propionylamino]-pentanoic acid]	24000	47000	140	12000	–	–
O=C(O)CC(NC(=O)Cn1cnc2sccc2c1=O)C(=O)CF (stereo not drawn) [Compound 1E-1, 5-Fluoro-4-oxo-3-[2-(4-oxo-4H-thieno[2,3-d]pyrimidin-3-yl)-acetylamino]-pentanoic acid]	64000	46000	70	13500	–	10000
O=C(O)CC(NC(=O)Cn1ccc(-c2ccccc2)cc1=O)C(=O)CF (stereo not drawn) [Compound 1A-4, 5-Fluoro-3-[2-(4-phenyl-2-oxo-2H-pyridin-1-yl)-acetylamino]-4-oxo-pentanoic acid]	–	40000	650	13500	–	–
Cc1cccc(=O)n1CC(=O)NC(CC(=O)O)C(=O)CF (stereo not drawn) [Compound 1A-3, 5-Fluoro-3-[2-(6-methyl-2-oxo-2H-pyridin-1-yl)-acetylamino]-4-oxo-pentanoic acid]	51000	36000	210	6750	–	–
O=C(O)CC(NC(=O)Cn1ccc2ccccc2c1=O)C(=O)CF (stereo not drawn) [Compound 1C-1, 5-Fluoro-4-oxo-3-[2-(1-oxo-1H-isoquinolin-2-yl)-acetylamino]-pentanoic acid]	130000	248000	60	27000	26000	2900

Stronger by IC50 (Jurkat E6.1 cells), values ahead:

Kinact (Caspase-3) [M⁻¹ s⁻¹]	Kinact (Caspase-1) [M⁻¹ s⁻¹]	IC50 (Jurkat E6.1 cells) [nM]	Caspase-8 Kinact (Caspase-8) [M⁻¹ s⁻¹]	Caspase-7 Kinact (Caspase-7) [M⁻¹ s⁻¹]	Structure (SMILES)	IC50 [1] [nM]
220000	115000	30	15500	–	C[C@@H](C(=O)NC(CC(=O)O)C(=O)CF)N1C(=O)c2ccccc2C1=O (stereo partly drawn) [Compound 1F-3, 5-Fluoro-4-oxo-3-[(2S)-2-(1,3-dioxo-1,3-dihydro-isoindol-2-yl)-propionylamino]-pentanoic acid]	4000
67000	107000	20	77000	–	CC(C)[C@@H](C(=O)NC(CC(=O)O)C(=O)CF)N1Cc2ccccc2N(Cc2cccc(Cl)c2)C1=O (stereo partly drawn) [Compound 1D-1, 5-Fluoro-4-oxo-3-[(2S)-2-[1-(3-chlorobenzyl)-2-oxo-1,4-dihydro-2H-quinazolin-3-yl]-3-methyl-butyrylamino]-pentanoic acid]	–
185000	419000	20	72500	–	CCC[C@@H](C(=O)NC(CC(=O)O)C(=O)CF)n1cnc2ccccc2c1=O (stereo partly drawn) [Compound 1C-11, 5-Fluoro-4-oxo-3-[(2S)-2-(4-oxo-4H-quinazolin-3-yl)-pentanoylamino]-pentanoic acid]	400
420000	307000	20	68500	147000	CC[C@@H](C(=O)NC(CC(=O)O)C(=O)CF)n1cnccc1=O (stereo partly drawn) [Compound 1G-1, 5-Fluoro-4-oxo-3-[(2S)-2-(6-oxo-6H-pyrimidin-1-yl)-butyrylamino]-pentanoic acid]	600
